Results taken from patent US9458212B2, “Nanoparticles containing a peptide, vectors containing said nanoparticles, and pharmaceutical uses of said nanoparticles and vectors” (CENTRE NATIONAL DE LA RECHERCHE SCIENTIFIQUE (C.N.R.S.), priority 2008, dated 2016).
Non-standard residues stand in square brackets, D forms with d. No end group written: not given here. pS = N[C@@H](COP(=O)(O)O)C(=O)O

Columns and labels:
[1] = system: T cells present in the lymph nodes draining the site of administration; conditions: with adjuvant, BALB/c mice, Monneaux et al. 2003; cited from earlier work
[2] = system: T cells present in the lymph nodes draining the site of administration; experiment: Subcutaneous immunization of BALB/c mice; ex vivo proliferation and cytokine secretion of lymph node cells stimulated with peptide P140; conditions: s.c., in the presence of CFA
Protocol: Eur. J. Immunol. 33, 287-296].
Female BALB/c mice aged 7 weeks old (4 groups of two mice) are immunized subcutaneously in the flanks with different formulations. […] The mice having received peptide in its free form or in the form of nanoparticles all received the same quantity of peptide, namely 100 μg per mouse.
One week after the immunization, the mice are sacrificed and samples are taken from the lymph nodes of the flank and of the foreleg. The cells issuing from these lymph nodes are cultured ex vivo in a proportion of 5.10^5 cells per well in the presence of different peptide concentrations (0, 6, 20 and 60 μM) so as to study their proliferation and also the secretion of cytokines.
The Th cells are classified into sub-populations, Th1 or Th2, depending on the cytokines that they produce and the function that they perform. Cells of type Th-1 produce in particular interleukin-2 (IL-2) and interferon-γ (IFN-γ), whereas cells of type Th-2 secrete essentially IL-4, IL-5, IL-6, IL-10 and IL-13. The immunization conditions used here, that is to say the use of CFA, encourage the development of a response of type Th1. Therefore, only the secretion of IL-2 and IFN-γ was studied.

[3] = system: mice; experiment: Intranasal administration of peptide P140 in mice; type: in vivo
Protocol: At present, the peptide P140 is administered by subcutaneous injection, which is not a comfortable mode of administration for the patient. Several other modes of administration have thus been tested. For instance, intranasal administration has been tested in mice but is not effective.

peptide P140: 21 amino acid peptide RIHMVYSKRSGKPRGYAFIEY, serine in position 10 phosphorylated (SEQ ID NO: 1) (RIHMVYSKR[pS]GKPRGYAFIEY; listed as Homo sapiens)
T cell response after s.c. administration in the presence of adjuvant [1]: activation of the auxiliary T cells Th | stimulation indices (proliferation) ([2]; 100 μg peptide per mouse, cells cultured with 0, 6, 20, 60 μM peptide): positive and dose-dependent | cytokine secretion (IL-2, IFN-γ) [2]: dose-dependent responses | efficacy of intranasal administration [3]: not effective
